{"source": "patent US6562829B1", "about": "“Treatment of hepatic cirrhosis” (Hadasit Medical Research Services & Development Co., Ltd., priority 1997, dated 2003)", "key": {"stellate cells [1]": {"system": "stellate cells", "assay": "Smooth muscle actin in stellate cells, TAA prevention experiment (Example 5)", "type": "in vivo, rat", "details": "prophylactic administration of Halofuginone with TAA", "excerpt": "(§1) Liver cirrhosis was induced with TAA as previously described. […] These cells are located in the subendothelial space, between the apical membrane of hepatocytes and the ablumenal side of the sinusoidal endothelial cells. The intimate association between the stellate cells and the neighboring cell types facilitates intercellular transport and paracrine stimulation by soluble mediators. In injured liver, these cells acquire features of myofibroblasts and express smooth muscle cytoskeletal markers such as smooth muscle actin. […] The experimental method was as follows.\n(§2) Rats were treated with TAA alone or TAA with Halofuginone as previously described in Example 4 for the use of Halofuginone as both a prophylactic treatment and a treatment for existing liver cirrhosis. Tissue samples were also prepared as previously described, except that rather than undergoing staining for collagen, the samples were incubated with smooth muscle actin antibodies in a 1:1000 dilution, with detection performed by the Histomouse SP kit according to the instructions of the manufacturer (Zymed Laboratories Inc., San Francisco, Calif., USA)."}, "[2]": {"system": "TAA-induced liver cirrhosis", "assay": "Treatment of existing TAA-induced liver cirrhosis in rats (Example 4)", "type": "in vivo, rat", "method": "(§3) Male Sprague-Dawley rats were divided into three groups. Two groups were injected intraperitoneally with TAA twice weekly for 12 weeks, at a dose of 200 mg/kg body (Muller, A. et al., Exp. Pathol., 34:229-236, 1988; Hori, N. et al., Dig. Dis. Sci., 38:2195-2202, 1993). […] The other group of rats, control rats, was injected with saline. One group of TAA-treated rats and one control group were fed Halofuginone in the diet at a dose of 5 ppm.\n(§4) Liver samples were taken for histological examination. Briefly, the tissue samples were collected into phosphate-buffered saline (PBS) and fixed overnight in 4% paraformaldehyde in PBS at 4° C. Serial 5 μm sections were prepared after the samples had been dehydrated in graded ethanol solutions, cleared in chloroform and embedded in Paraplast. Differential staining of collagenous and non-collagenous proteins was performed with 0.1% Sirius red and 0.1% fast green as a counter-stain in picric acid. This procedure stains collagen red [Gascon-Barre, M., et al., J. Histochem. Cytochem., 37:377-381, 1989].\nIn addition, the livers were scored in a double-blind evaluation, on a scale of 0-4, for the appearance of fibrotic tissue. […]"}, "[3]": {"system": "bile duct ligation-induced fibrosis", "type": "in vivo, rat", "excerpt": "In addition to dimethylnitrosamine-induced liver fibrosis, a second model of liver fibrosis in rats is available. […] Tox., 15:449-453, 1995]. Thus, the particular advantage of the bile duct ligation model is that any protective treatments must directly protect the liver from the pathological changes induced by fibrosis, rather than indirectly altering the effects of the exogeneous substance which is used to cause liver fibrosis in the animal model. The experimental method was as follows.\nMale Wistar rats, weighing 200-250 g, were divided into four experimental groups with 3 rats in each group. […] It should be noted that all animals in the first two groups underwent sham operations which included all steps of the actual surgical procedure, with the exception of the bile duct ligation itself. The third group had bile duct ligation surgery and was not given Halofuginone. The fourth group had bile duct ligation surgery and was given Halofuginone. The actual surgical procedure was essentially similar to that reported in the literature [Kountaras, J. et al., Br. J. Exp. Pathol., 65:305-311, 1984].\nAll animals were given drinking water ad libitum. Rats which were given Halofuginone were fed Halofuginone in the normal rat diet at a concentration of 5 mg per kg diet weight for one week before surgery and for the duration of the experimental period, which was either 3 or 7 days after the surgical operation. Rats were sacrificed at the end of the experimental period. Both collagen content (through Sirius red staining) and collagen α1(I) gene expression were measured as described above in Example 1. In addition, serum alkaline phosphatase, alanine aminotransferase and aspartate aminotransferase levels were measured […] by a Hitachi Auto-analyzer System of Boerringher-Mannheim."}, "[4]": {"system": "dimethylnitrosamine-induced hepatic fibrosis", "assay": "Dimethylnitrosamine-induced severe liver fibrosis in rats (Example 1)", "type": "in vivo", "method": "The experimental method was as follows. Male Sprague-Dawley rats were divided into four groups. Two groups were injected intraperitoneally with 1% dimethylnitrosamine in saline for three consecutive days per week for 3 weeks, at a dose of 1 ml/kg body weight. This dosage regimen will induce severe liver fibrosis. The other two groups of rats, control rats, were injected with saline. One group of dimethylnitrosamine-treated rats and one control group were fed Halofuginone in the diet at a dose of 5 mg/kg weight of diet, starting three days before the dimethylnitrosamine injections were administered. At the end of the experimental period, the rats were sacrificed and the liver was removed and weighed.\nas §4\nLiver samples were then hybridized with a probe for rat collagen α1(I) expression. For hybridization with the genetic probe, the sections were deparafinized in xylene, rehydrated through a graded series of ethanol solutions, rinsed in distilled water for 5 minutes and then incubated in 2×SSC at 70° C. for 30 minutes. The sections were then rinsed in distilled water and treated with pronase, 0.125 mg/ml in 50 mM Tris-HCl, 5 mM EDTA, pH 7.5, for 10 minutes. After digestion, the slides were rinsed with distilled water, post-fixed in 10% formalin in PBS and blocked in 0.2% glycine. After blocking, the slides were rinsed in distilled water, rapidly dehydrated through graded ethanol solutions and air-dried for several hours. Before hybridization, the 1600 bp rat collagen α1(I) insert was cut out from the original plasmid, pUC18, and inserted into the pSafyre plasmid. The sections were then hybridized with this probe after digoxigenin-labeling [M. Pines et al., Matrix Biology, 14:765-71, 1996]."}, "[5]": {"system": "TAA-induced liver cirrhosis", "type": "in vivo, rat", "method": "as §3\nFor this experiment, rats in group 1 received only Halofuginone (n=4); rats in group 2 received TAA alone without Halofuginone (n=6); and rats in group 3 received TAA with Halofuginone (n=6). Groups 1and 3 received Halofuginone starting three days before the TAA injections were administered. At the end of the experimental period, the rats were sacrificed and the liver was removed and weighed.\nas §4\nIn addition, the livers were scored in a double-blind evaluation, on a scale of 0-4, for the appearance of fibrotic tissue."}, "stellate cells [6]": {"system": "stellate cells", "assay": "Smooth muscle actin in stellate cells, TAA treatment experiment (Example 5)", "type": "in vivo, rat", "details": "Halofuginone administered after induction of liver cirrhosis by TAA", "excerpt": "as §1, §2"}, "collagen type I": {"system": "collagen type I", "details": "as demonstrated in U.S. Pat. No. 5,449,678; cited from earlier work"}, "[7]": {"system": "mild dimethylnitrosamine-induced fibrosis", "assay": "Mild dimethylnitrosamine-induced fibrosis in rat liver (Example 2)", "type": "in vivo", "details": "4 weeks", "method": "The specific experimental method used was similar to that of Example 1, except that the dimethylnitrosamine-treated rats were only given 0.25% dimethylnitrosamine in saline, a much lower dose than that given in Example 1 above. Also, the duration of treatment was longer before the rats were sacrificed: 4 weeks as opposed to 3 weeks in Example 1.\nThe expression of the collagen α1(I) gene was measured as described in Example 1 above. For hydroxyproline analysis, liver samples were hydrolyzed for 22 hours at 110° C. with 6 N HCl. Nitrogen was determined after Kjeldahl digestion by the spectrophotometric procedure using an autoanalyzer as described by Krom [M. D. Krom, Analyst, 105:305-16, 1980]. The collagen-unique amino acid hydroxyproline from the same hydrolysate was determined by amino acid analysis (Biotronik LC 5000, Germany) after post-column derivatization on a cation exchange column (BTC 2710, Biotronik). The results are expressed as the percentage of collagen in total liver proteins."}, "[8]": {"details": "bile duct ligated rats fed Halofuginone vs bile duct ligation only"}, "[9]": {"details": "bile duct ligated rats, Halofuginone 5 mg per kg diet"}}, "note": "Where two headings read alike, the source gives them in different places."}
{"compound": "O=C(CC1NCCC[C@H]1O)Cn1cnc2cc(Br)c(Cl)cc2c1=O", "note": "(some centres unmarked) [Halofuginone]", "values": [{"measurement": "pathological expression of smooth muscle actin by stellate cells", "setting": "stellate cells [1]", "value": "prevented"}, {"measurement": "thickening of collagen bundles in liver (Sirius red staining)", "setting": "[2]; Halofuginone given for four weeks after twelve weeks of TAA", "value": "markedly reduced"}, {"measurement": "average double-blind liver fibrosis score", "setting": "[2]; scale of 0-4, group 3, Halofuginone after twelve weeks TAA, TAA alone 2.16±0.7 (group 1) or 3.06±1.7 (group 2)", "value": "1.18±1.6"}, {"measurement": "bile duct ligation-induced increase in collagen synthesis", "setting": "[3]; [8]", "value": "significantly reduced"}, {"measurement": "bile duct ligation-induced increase in collagen α1(I) gene expression", "setting": "[3]; [8]", "value": "significantly reduced"}, {"measurement": "serum alanine aminotransferase, higher in rats not given Halofuginone than in rats fed Halofuginone", "setting": "[3]; [9]", "value": 56, "unit": "%"}, {"measurement": "serum alkaline phosphatase in rats not given Halofuginone relative to rats fed Halofuginone", "setting": "[3]; [9]", "value": 257, "unit": "%"}, {"measurement": "serum aspartate aminotransferase, higher in rats not given Halofuginone than in rats fed Halofuginone", "setting": "[3]; [9]", "value": 15, "unit": "%"}, {"measurement": "toxicity (survival)", "setting": "[4]; Halofuginone alone, 5 mg/kg diet, all six rats survived", "value": "no toxicity"}, {"measurement": "liver weight", "setting": "[4]; rat, in vivo", "value": "11 ± 1.5", "unit": "g"}, {"measurement": "expression of collagen α1(I) gene in liver (in situ hybridization)", "setting": "[4]; rats given 1% dimethylnitrosamine i.p. and Halofuginone 5 mg/kg diet, 3 weeks, compared to dimethylnitrosamine alone", "value": "marked reduction"}, {"measurement": "liver weight", "setting": "[4]; rats given both Halofuginone and dimethylnitrosamine, dimethylnitrosamine alone 4.5 g and 5.0 g", "value": "8.5 ± 1.7", "unit": "g"}, {"measurement": "thickening of collagen bundles in liver (Sirius red staining)", "setting": "[4]; rats given both dimethylnitrosamine and Halofuginone 5 mg/kg diet", "value": "markedly reduced"}, {"measurement": "rats died by the end of three weeks", "setting": "[4]; rats given both dimethylnitrosamine and Halofuginone, four of six died with dimethylnitrosamine alone", "value": "one of the six"}, {"measurement": "reduction of fibrotic scores for liver", "setting": "[5]; Halofuginone plus TAA vs TAA alone (prevention)", "value": 43, "unit": "%"}, {"measurement": "effect on body weight", "setting": "[5]; rat, in vivo", "value": "no effect"}, {"measurement": "effect on spleen weight", "setting": "[5]; rat, in vivo", "value": "no effect"}, {"measurement": "thickening of collagen bundles in liver (Sirius red staining)", "setting": "[5]; rats given both TAA (200 mg/kg i.p. twice weekly, 12 weeks) and Halofuginone 5 ppm in diet from three days before TAA", "value": "markedly reduced"}, {"measurement": "average double-blind liver fibrosis score", "setting": "[5]; scale of 0-4, rats given both Halofuginone and TAA (prevention), TAA alone 2.16±0.7", "value": "1.25±0.8"}, {"measurement": "pathological expression of smooth muscle actin by stellate cells", "setting": "stellate cells [6]", "value": "significantly reduced"}, {"measurement": "synthesis of collagen type I in bone chondrocytes in vitro", "setting": "collagen type I", "value": "inhibits"}, {"measurement": "increased collagen α1(I) gene expression in liver", "setting": "[7]; 0.25% dimethylnitrosamine plus Halofuginone", "value": "abolished"}, {"measurement": "dimethylnitrosamine-induced increase in liver hydroxyproline concentration", "setting": "[7]; 0.25% dimethylnitrosamine, Halofuginone in diet", "value": "completely inhibited"}]}
